Legend:
[1] = system: SU-DHL-2; assay: Growth inhibition of human SU-DHL-2 cells; format: functional; details: Homo sapiens, SU-DHL-2
[2] = Tmax in Sprague-Dawley rat at 10 mg/kg, po by LC-MS/MS method; format: ADME, organism-based; details: in vivo
[3] = molecular target: Tyrosine-protein kinase ABL1 (Homo sapiens) (UniProt P00519); assay: Inhibition of wild-type human phosphorylated ABL1 (S229 to K512 residues) expressed in mammalian expression system assessed as residual activity at 1 uM by Kinomescan method relative to control
[4] = molecular target: Atypical kinase COQ8B, mitochondrial (Homo sapiens) (UniProt Q96D53); assay: Inhibition of wild-type human full length ADCK4 (M1 to S544 residues) expressed in bacterial expression system assessed as residual activity at 1 uM by Kinomescan method relative to control
[5] = molecular target: RAC-beta serine/threonine-protein kinase (Homo sapiens) (UniProt P31751); assay: Inhibition of wild-type human partial length AKT2 expressed in bacterial expression system assessed as residual activity at 1 uM by Kinomescan method relative to control
[6] = molecular target: Ankyrin repeat and protein kinase domain-containing protein 1 (Homo sapiens) (UniProt Q8NFD2); assay: Inhibition of wild-type human partial length ANKK1 (M1 to A305 residues) expressed in mammalian expression system assessed as residual activity at 1 uM by Kinomescan method relative to control
[7] = molecular target: Serine/threonine-protein kinase B-raf (Homo sapiens) (UniProt P15056); assay: Inhibition of wild-type human partial length BRAF (S429 to E741 residues) expressed in mammalian expression system assessed as residual activity at 1 uM by Kinomescan method relative to control
[8] = molecular target: Peripheral plasma membrane protein CASK (Homo sapiens) (UniProt O14936); assay: Inhibition of wild-type human partial length CASK (M1 to H315 residues) expressed in mammalian expression system assessed as residual activity at 1 uM by Kinomescan method relative to control
[9] = molecular target: Discoidin domain-containing receptor 2 (Homo sapiens) (UniProt Q16832); assay: Inhibition of wild-type human partial length DDR2 (V555 to E855 residues) expressed in mammalian expression system assessed as residual activity at 1 uM by Kinomescan method relative to control
[10] = molecular target: Ephrin type-A receptor 3 (Homo sapiens) (UniProt P29320); assay: Inhibition of wild-type human partial length EPHA3 (D604 to K889 residues) expressed in bacterial expression system assessed as residual activity at 1 uM by Kinomescan method relative to control
[11] = molecular target: Receptor tyrosine-protein kinase erbB-2 (Homo sapiens) (UniProt P04626); assay: Inhibition of wild-type human partial length ERBB2 (K646 to V1225 residues) expressed in mammalian expression system assessed as residual activity at 1 uM by Kinomescan method relative to control
[12] = molecular target: Focal adhesion kinase 1 (Homo sapiens) (UniProt Q05397); assay: Inhibition of wild-type human partial length FAK (D402 to R696 residues) expressed in bacterial expression system assessed as residual activity at 1 uM by Kinomescan method relative to control
[13] = molecular target: Fibroblast growth factor receptor 2 (Homo sapiens) (UniProt P21802); assay: Inhibition of wild-type human partial length FGFR2 (D457 to E769 residues) expressed in bacterial expression system assessed as residual activity at 1 uM by Kinomescan method relative to control
[14] = system: Receptor-type tyrosine-protein kinase FLT3 (Homo sapiens), P36888 [D835H]; assay: Inhibition of human partial length FLT3 D835H mutant (V592 to Y969 residues) expressed in bacterial expression system assessed as residual activity at 1 uM by Kinomescan method relative to control
[15] = molecular target: Serine/threonine-protein kinase STK11 (Homo sapiens) (UniProt Q15831); assay: Inhibition of wild-type human full length LKB1 (M1 to Q433 residues) expressed in bacterial expression system assessed as residual activity at 1 uM by Kinomescan method relative to control
[16] = molecular target: Leukocyte tyrosine kinase receptor (Homo sapiens) (UniProt P29376); assay: Inhibition of wild-type human partial length LTK (P422 to S744 residues) expressed in bacterial expression system assessed as residual activity at 1 uM by Kinomescan method relative to control
[17] = molecular target: Serine/threonine-protein kinase Nek2 (Homo sapiens) (UniProt P51955); assay: Inhibition of wild-type human partial length NEK2 (M1 to K309 residues) expressed in bacterial expression system assessed as residual activity at 1 uM by Kinomescan method relative to control
[18] = molecular target: Serine/threonine-protein kinase Nek5 (Homo sapiens) (UniProt Q6P3R8); assay: Inhibition of wild-type human partial length NEK5 (M1 to M279 residues) expressed in bacterial expression system assessed as residual activity at 1 uM by Kinomescan method relative to control
[19] = molecular target: Serine/threonine-protein kinase Nek9 (Homo sapiens) (UniProt Q8TD19); assay: Inhibition of wild-type human partial length NEK9 (P32 to R328 residues) expressed in bacterial expression system assessed as residual activity at 1 uM by Kinomescan method relative to control
[20] = molecular target: Phosphorylase b kinase gamma catalytic chain, skeletal muscle/heart isoform (Homo sapiens) (UniProt Q16816); assay: Inhibition of wild-type human full length PHKG1 (M1 to Y387 residues) expressed in bacterial expression system assessed as residual activity at 1 uM by Kinomescan method relative to control
[21] = molecular target: Serine/threonine-protein kinase PLK4 (Homo sapiens) (UniProt O00444); assay: Inhibition of wild-type human partial length PLK4 (M1 to S273 residues) expressed in mammalian expression system assessed as residual activity at 1 uM by Kinomescan method relative to control
[22] = molecular target: Protein kinase C epsilon type (Homo sapiens) (UniProt Q02156); assay: Inhibition of wild-type human partial length PRKCE (A378 to P737 residues) expressed in mammalian expression system assessed as residual activity at 1 uM by Kinomescan method relative to control
[23] = molecular target: Serine/threonine-protein kinase RIO3 (Homo sapiens) (UniProt O14730); assay: Inhibition of wild-type human full length RIOK3 (M1 to E519 residues) expressed in bacterial expression system assessed as residual activity at 1 uM by Kinomescan method relative to control
[24] = molecular target: Ribosomal protein S6 kinase alpha-4 (Homo sapiens) (UniProt O75676); assay: Inhibition of wild-type human partial length C-terminal RPS6KA4 kinase domain 2 (M375 to T705 residues) expressed in mammalian expression system assessed as residual activity at 1 uM by Kinomescan method relative to control
[25] = molecular target: NUAK family SNF1-like kinase 2 (Homo sapiens) (UniProt Q9H093); assay: Inhibition of wild-type human partial length SNARK (P22 to A333 residues) expressed in mammalian expression system assessed as residual activity at 1 uM by Kinomescan method relative to control
[26] = molecular target: TGF-beta receptor type-2 (Homo sapiens) (UniProt P37173); assay: Inhibition of wild-type human partial length TGFBR2 (I218 to K567 residues) expressed in bacterial expression system assessed as residual activity at 1 uM by Kinomescan method relative to control
[27] = system: U2932; assay: Induction of apoptosis in human U2932 cells assessed as induction of caspase-3 cleavage after 48 hrs by immunoblot; format: functional, cell-based

Sequence of Ankyrin repeat and protein kinase domain-containing protein 1 (Homo sapiens) (Q8NFD2 whole entry, the tested form may be a part): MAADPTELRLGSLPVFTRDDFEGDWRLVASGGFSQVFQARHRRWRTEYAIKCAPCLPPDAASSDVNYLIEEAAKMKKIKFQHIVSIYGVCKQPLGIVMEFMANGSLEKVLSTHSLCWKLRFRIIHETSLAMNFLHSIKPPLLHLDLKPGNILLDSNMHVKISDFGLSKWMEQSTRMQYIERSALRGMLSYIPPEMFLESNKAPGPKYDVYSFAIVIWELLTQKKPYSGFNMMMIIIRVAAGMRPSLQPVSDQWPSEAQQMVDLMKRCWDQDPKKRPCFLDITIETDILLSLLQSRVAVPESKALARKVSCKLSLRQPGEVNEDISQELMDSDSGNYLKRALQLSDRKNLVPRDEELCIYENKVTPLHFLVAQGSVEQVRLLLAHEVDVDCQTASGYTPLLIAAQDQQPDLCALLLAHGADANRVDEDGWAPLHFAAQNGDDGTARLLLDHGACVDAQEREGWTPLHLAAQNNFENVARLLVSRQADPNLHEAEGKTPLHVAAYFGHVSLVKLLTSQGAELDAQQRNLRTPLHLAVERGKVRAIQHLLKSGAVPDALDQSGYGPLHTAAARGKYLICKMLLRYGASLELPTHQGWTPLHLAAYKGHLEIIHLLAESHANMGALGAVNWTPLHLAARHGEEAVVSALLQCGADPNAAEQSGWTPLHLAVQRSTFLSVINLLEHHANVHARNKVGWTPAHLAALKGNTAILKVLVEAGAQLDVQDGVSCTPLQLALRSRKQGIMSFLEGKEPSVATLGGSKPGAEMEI
Sequence of TGF-beta receptor type-2 (Homo sapiens) (P37173 whole entry, the tested form may be a part): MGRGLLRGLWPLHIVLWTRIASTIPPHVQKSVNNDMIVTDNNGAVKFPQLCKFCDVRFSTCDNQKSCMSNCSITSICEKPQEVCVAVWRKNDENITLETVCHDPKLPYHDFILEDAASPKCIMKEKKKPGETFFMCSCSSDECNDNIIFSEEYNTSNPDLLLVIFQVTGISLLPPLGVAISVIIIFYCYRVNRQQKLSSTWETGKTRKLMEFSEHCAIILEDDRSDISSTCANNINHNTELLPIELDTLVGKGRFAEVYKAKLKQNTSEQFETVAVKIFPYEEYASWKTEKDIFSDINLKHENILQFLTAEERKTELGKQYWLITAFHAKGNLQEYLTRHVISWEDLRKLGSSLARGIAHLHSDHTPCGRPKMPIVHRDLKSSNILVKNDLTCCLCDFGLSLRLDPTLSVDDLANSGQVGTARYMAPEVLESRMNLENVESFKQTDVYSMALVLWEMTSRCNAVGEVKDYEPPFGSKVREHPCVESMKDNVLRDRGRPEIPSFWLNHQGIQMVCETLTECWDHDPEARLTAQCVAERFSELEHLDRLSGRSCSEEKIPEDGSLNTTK
Sequence of RAC-beta serine/threonine-protein kinase (Homo sapiens) (P31751 whole entry, the tested form may be a part): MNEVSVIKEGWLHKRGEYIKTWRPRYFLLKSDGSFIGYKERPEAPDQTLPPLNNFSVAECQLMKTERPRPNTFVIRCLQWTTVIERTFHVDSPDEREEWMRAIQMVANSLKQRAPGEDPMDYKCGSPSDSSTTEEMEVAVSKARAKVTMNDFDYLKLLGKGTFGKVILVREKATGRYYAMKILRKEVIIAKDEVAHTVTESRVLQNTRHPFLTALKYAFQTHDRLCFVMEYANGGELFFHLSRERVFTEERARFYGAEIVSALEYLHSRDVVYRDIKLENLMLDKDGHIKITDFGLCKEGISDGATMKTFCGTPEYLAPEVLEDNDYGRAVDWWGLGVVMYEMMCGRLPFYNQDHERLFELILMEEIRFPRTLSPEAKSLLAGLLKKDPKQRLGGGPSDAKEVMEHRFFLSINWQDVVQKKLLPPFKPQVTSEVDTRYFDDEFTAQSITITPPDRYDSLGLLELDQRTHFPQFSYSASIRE
Sequence of Serine/threonine-protein kinase RIO3 (Homo sapiens) (O14730 whole entry, the tested form may be a part): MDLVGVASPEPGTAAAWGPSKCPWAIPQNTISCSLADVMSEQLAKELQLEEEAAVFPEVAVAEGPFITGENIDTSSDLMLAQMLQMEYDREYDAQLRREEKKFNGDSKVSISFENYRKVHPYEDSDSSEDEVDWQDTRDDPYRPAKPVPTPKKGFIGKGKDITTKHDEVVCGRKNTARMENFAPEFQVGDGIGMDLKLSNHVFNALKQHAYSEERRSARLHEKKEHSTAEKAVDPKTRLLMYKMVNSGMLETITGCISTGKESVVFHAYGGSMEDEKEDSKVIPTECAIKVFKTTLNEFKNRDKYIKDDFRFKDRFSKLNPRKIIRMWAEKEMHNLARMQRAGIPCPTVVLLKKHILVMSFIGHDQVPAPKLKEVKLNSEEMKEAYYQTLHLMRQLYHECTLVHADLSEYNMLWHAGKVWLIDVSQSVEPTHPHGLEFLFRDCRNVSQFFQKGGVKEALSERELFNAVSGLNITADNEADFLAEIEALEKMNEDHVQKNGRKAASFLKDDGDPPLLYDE
Sequence of NUAK family SNF1-like kinase 2 (Homo sapiens) (Q9H093 whole entry, the tested form may be a part): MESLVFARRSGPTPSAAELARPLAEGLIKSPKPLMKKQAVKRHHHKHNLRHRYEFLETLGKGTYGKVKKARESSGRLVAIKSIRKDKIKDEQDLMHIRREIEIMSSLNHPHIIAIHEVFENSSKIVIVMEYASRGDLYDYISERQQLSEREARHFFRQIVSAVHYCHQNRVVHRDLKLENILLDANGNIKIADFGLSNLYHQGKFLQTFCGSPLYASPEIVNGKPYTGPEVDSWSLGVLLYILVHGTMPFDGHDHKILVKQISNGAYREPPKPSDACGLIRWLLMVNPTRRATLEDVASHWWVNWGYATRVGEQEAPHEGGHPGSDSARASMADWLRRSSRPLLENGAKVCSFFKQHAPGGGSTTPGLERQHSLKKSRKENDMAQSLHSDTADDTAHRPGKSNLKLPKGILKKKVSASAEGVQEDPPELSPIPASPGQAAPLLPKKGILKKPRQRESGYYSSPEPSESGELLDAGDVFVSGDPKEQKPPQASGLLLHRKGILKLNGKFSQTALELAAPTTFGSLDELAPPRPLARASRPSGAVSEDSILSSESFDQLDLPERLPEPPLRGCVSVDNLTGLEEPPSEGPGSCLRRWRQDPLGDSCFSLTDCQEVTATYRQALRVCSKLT
Sequence of Phosphorylase b kinase gamma catalytic chain, skeletal muscle/heart isoform (Homo sapiens) (Q16816 whole entry, looked up, the tested form may be a part, canonical isoform): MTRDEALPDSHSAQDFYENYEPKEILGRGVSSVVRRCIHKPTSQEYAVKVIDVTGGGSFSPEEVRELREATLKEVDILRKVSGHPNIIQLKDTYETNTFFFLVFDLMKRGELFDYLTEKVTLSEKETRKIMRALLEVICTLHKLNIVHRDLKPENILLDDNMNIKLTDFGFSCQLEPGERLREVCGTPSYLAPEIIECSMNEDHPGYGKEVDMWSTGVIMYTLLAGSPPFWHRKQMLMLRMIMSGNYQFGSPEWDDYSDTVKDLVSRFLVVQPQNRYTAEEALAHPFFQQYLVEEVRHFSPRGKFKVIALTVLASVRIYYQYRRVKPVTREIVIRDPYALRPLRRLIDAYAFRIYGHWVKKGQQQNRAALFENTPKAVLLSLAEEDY
Sequence of Serine/threonine-protein kinase B-raf (Homo sapiens) (P15056 whole entry, the tested form may be a part): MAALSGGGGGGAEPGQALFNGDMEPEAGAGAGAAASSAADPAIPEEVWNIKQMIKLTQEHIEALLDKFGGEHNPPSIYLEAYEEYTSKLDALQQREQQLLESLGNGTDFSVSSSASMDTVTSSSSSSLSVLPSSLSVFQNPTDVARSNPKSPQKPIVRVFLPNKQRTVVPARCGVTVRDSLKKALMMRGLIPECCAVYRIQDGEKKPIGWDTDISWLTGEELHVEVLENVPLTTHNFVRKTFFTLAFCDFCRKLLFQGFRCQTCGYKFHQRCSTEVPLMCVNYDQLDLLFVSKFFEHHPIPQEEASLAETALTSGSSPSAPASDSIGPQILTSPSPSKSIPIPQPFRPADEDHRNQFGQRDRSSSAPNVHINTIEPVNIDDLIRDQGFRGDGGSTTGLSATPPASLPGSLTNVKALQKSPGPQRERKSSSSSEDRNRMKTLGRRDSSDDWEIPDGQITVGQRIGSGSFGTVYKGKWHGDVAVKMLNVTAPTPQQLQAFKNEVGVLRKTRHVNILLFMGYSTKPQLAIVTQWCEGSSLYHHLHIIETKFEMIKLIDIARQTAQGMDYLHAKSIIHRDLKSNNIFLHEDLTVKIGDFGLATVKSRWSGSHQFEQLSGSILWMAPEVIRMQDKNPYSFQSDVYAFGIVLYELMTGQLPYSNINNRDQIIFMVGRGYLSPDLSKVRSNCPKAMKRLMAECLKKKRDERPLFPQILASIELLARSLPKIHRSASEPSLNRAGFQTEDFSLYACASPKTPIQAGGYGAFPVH
Sequence of Serine/threonine-protein kinase Nek5 (Homo sapiens) (Q6P3R8 whole entry, the tested form may be a part): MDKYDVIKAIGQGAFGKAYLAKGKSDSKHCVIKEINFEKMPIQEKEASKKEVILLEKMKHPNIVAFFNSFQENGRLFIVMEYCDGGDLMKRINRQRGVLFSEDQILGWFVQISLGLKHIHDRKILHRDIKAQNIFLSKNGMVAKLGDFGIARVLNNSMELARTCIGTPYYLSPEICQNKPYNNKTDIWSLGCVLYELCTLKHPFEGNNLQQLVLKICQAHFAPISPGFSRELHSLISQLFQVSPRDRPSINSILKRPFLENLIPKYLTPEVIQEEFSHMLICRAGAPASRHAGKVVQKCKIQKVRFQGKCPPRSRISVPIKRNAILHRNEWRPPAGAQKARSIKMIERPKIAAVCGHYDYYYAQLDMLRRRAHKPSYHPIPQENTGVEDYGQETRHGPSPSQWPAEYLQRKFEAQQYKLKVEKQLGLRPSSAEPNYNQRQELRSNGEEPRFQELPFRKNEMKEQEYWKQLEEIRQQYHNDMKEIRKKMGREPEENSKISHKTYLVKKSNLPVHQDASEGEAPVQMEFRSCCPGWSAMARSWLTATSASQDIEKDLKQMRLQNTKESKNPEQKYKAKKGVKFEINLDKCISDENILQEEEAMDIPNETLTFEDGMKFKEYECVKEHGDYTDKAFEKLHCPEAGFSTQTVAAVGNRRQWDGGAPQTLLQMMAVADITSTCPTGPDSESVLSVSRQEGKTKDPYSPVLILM

## C=CC(=O)Nc1cc(Nc2cc(-c3cccc(NC(=O)c4ccc(C(C)(C)C)cc4)c3C)cn(C)c2=O)ccc1C(=O)N1CCOCC1
[1]
  GI50: 3 µM
[2]
  Tmax: 30 min
[3]
  Activity: 100%
[4]
  Activity: 100%
[5]
  Activity: 95%
[6]
  Activity: 98%
[7]
  Activity: 100%
[8]
  Activity: 95%
[9]
  Activity: 93%
[10]
  Activity: 95%
[11]
  Activity: 97%
[12]
  Activity: 96%
[13]
  Activity: 74%
[14]
  Activity: 100%
[15]
  Activity: 98%
[16]
  Activity: 81%
[17]
  Activity: 99%
[18]
  Activity: 100%
[19]
  Activity: 98%
[20]
  Activity: 100%
[21]
  Activity: 99%
[22]
  Activity: 96%
[23]
  Activity: 78%
[24]
  Activity: 100%
[25]
  Activity: 87%
[26]
  Activity: 90%
[27]
  Activity: Dose-dependent effect
